Converted amounts (≈) assume the structure as drawn.

What all share (type): functional
In assay [1] the test system is Panonychus ulmi. As to the kind of experiment: Insecticidal activity against Panonychus ulmi PSR-TK in plum tree leaf assessed as mortality at adult stage compound treated by spray application measured after 7 to 8 days treatment.
Assay [2] deals with Panonychus ulmi. As to the kind of experiment: Insecticidal activity against Panonychus ulmi HS in plum tree leaf assessed as mortality at adult stage compound treated by spray application measured after 7 to 8 days treatment.
For assay [3], the system named is Panonychus ulmi. Briefly: Resistance ratio, LC50 for adult Panonychus ulmi HS to LC50 for adult Panonychus ulmi PSR TK.
Assay [4] has as its system Panonychus ulmi. As to the kind of experiment: Resistance ratio, LC50 for egg Panonychus ulmi HS to LC50 for egg Panonychus ulmi PSR TK.
Assay [5] has as its system Panonychus ulmi. As to the kind of experiment: Insecticidal activity against Panonychus ulmi PSR-TK in plum tree leaf assessed as mortality at egg stage compound treated by spray application measured after 7 to 8 days treatment.
Assay [6] has as its system Panonychus ulmi. Briefly: Resistance ratio, LC50 for adult Panonychus ulmi HS to LC50 for adult Panonychus ulmi GE 16/09.
For assay [7], the system named is Panonychus ulmi. As to the kind of experiment: Insecticidal activity against Panonychus ulmi HS in plum tree leaf assessed as larvae mortality compound treated by spray application measured after 7 to 8 days treatment.
In assay [8] the test system is Panonychus ulmi. Briefly: Resistance ratio, LC50 for larvae Panonychus ulmi HS to LC50 for larvae Panonychus ulmi PSR TK.
Assay [9] deals with Panonychus ulmi. Briefly: Insecticidal activity against Panonychus ulmi HS in plum tree leaf assessed as egg mortality compound treated by spray application measured after 7 to 8 days treatment.
The test system of assay [10] is Panonychus ulmi. As to the kind of experiment: Insecticidal activity against Panonychus ulmi PSR-TK in plum tree leaf assessed as mortality at larvae stage compound treated by spray application measured after 7 to 8 days treatment.
Assay [11] has as its system Panonychus ulmi. Briefly: Insecticidal activity against Panonychus ulmi Ge13/09 in plum tree leaf assessed as larvae mortality compound treated by spray application measured after 7 to 8 days treatment.
The test system of assay [12] is Panonychus ulmi. Briefly: Resistance ratio, LC50 for egg Panonychus ulmi Ge16/09 to LC50 for egg Panonychus ulmi HS.
Assay [13] concerns Panonychus ulmi. Briefly: Resistance ratio, LC50 for egg Panonychus ulmi Ge15/09 to LC50 for egg Panonychus ulmi HS.
Assay [14] concerns Panonychus ulmi. As to the kind of experiment: Insecticidal activity against Panonychus ulmi Ge13/09 in plum tree leaf assessed as egg mortality compound treated by spray application measured after 7 to 8 days treatment.
Assay [15] concerns Panonychus ulmi. As to the kind of experiment: Resistance ratio, LC50 for larvae Panonychus ulmi Ge13/09 to LC50 for larvae Panonychus ulmi HS.
Assay [16] deals with Panonychus ulmi. Briefly: Insecticidal activity against Panonychus ulmi Ge15/09 in plum tree leaf assessed as egg mortality compound treated by spray application measured after 7 to 8 days treatment.
In assay [17] the test system is Panonychus ulmi. Briefly: Resistance ratio, LC50 for egg Panonychus ulmi Ge13/09 to LC50 for egg Panonychus ulmi HS.
The subject of assay [18] is Panonychus ulmi. As to the kind of experiment: Insecticidal activity against Panonychus ulmi Ge16/09 in plum tree leaf assessed as egg mortality compound treated by spray application measured after 7 to 8 days treatment.
In assay [19] the test system is Panonychus ulmi. Briefly: Insecticidal activity against Panonychus ulmi Ge15/09 in plum tree leaf assessed as larvae mortality compound treated by spray application measured after 7 to 8 days treatment.
For assay [20], the system named is Panonychus ulmi. As to the kind of experiment: Insecticidal activity against Panonychus ulmi Ge14/09 in plum tree leaf assessed as larvae mortality compound treated by spray application measured after 7 to 8 days treatment.
Assay [21] concerns Panonychus ulmi. Briefly: Resistance ratio, LC50 for egg Panonychus ulmi Ge14/09 to LC50 for egg Panonychus ulmi HS.
In assay [22] the test system is Panonychus ulmi. Briefly: Insecticidal activity against Panonychus ulmi Ge14/09 in plum tree leaf assessed as egg mortality compound treated by spray application measured after 7 to 8 days treatment.
For assay [23], the system named is Panonychus ulmi. As to the kind of experiment: Resistance ratio, LC50 for larvae Panonychus ulmi Ge15/09 to LC50 for larvae Panonychus ulmi HS.
Assay [24] has as its system Panonychus ulmi. As to the kind of experiment: Resistance ratio, LC50 for larvae Panonychus ulmi Ge16/09 to LC50 for larvae Panonychus ulmi HS.
The subject of assay [25] is Panonychus ulmi. As to the kind of experiment: Insecticidal activity against Panonychus ulmi Ge16/09 in plum tree leaf assessed as larvae mortality compound treated by spray application measured after 7 to 8 days treatment.
The test system of assay [26] is Panonychus ulmi. Briefly: Resistance ratio, LC50 for larvae Panonychus ulmi Ge14/09 to LC50 for larvae Panonychus ulmi HS.

Turning to `CCCCCCCCCCCCC1=C(OC(C)=O)C(=O)c2ccccc2C1=O` [ACEQUINOCYL], the LC50 turned out to be 1.3 µg/mL (≈ 3.38 µM) in the assay with Panonychus ulmi [1] and 2.75 µg/mL (≈ 7.15 µM) with Panonychus ulmi [2]. The RatioLC50 with Panonychus ulmi [3] stood at 3.
For `COc1ccc(-c2ccccc2)cc1NNC(=O)OC(C)C` [BIFENAZATE] the same measures were 1.3 µg/mL (≈ 4.33 µM), 1.42 µg/mL (≈ 4.73 µM) and 1.
Consider `Clc1ccccc1-c1nnc(-c2ccccc2Cl)nn1` [CLOFENTEZINE], for which the RatioLC50 with Panonychus ulmi [4] is greater than 160; in the assay with Panonychus ulmi [6], greater than 3900; in the assay with Panonychus ulmi [8] it was greater than 1800. Further, the LC50 with Panonychus ulmi [5] was greater than 10000 µg/mL; in the assay with Panonychus ulmi [7], 5.53 µg/mL (≈ 18.2 µM); with Panonychus ulmi [9], 61.3 µg/mL (≈ 202 µM); with Panonychus ulmi [10], greater than 10000 µg/mL.
In the case of `Cc1nn(C)c(/C(OC(=O)C(C)(C)C)=C(\C#N)c2ccc(C(C)(C)C)cc2)c1C` [CYENOPYRAFEN], the 50% lethal concentration (LC50) is 7.13 µg/mL (≈ 18.1 µM) with Panonychus ulmi [1] and 0.3 µg/mL (≈ 0.762 µM) in the assay with Panonychus ulmi [2]. The RatioLC50 with Panonychus ulmi [3] was determined as 23.5.
With `CCOc1cc(C(C)(C)C)ccc1C1COC(c2c(F)cccc2F)=N1` (stereo not given) [ETOXAZOLE], the LC50 with Panonychus ulmi [7] was 0.15 µg/mL (≈ 0.417 µM); in the assay on Panonychus ulmi [10], greater than 10000 µg/mL. Further, the RatioLC50 with Panonychus ulmi [8] is on record as 10.
In the case of `C[C@@H]1[C@@H](c2ccc(Cl)cc2)SC(=O)N1C(=O)NC1CCCCC1` [HEXYTHIAZOX], the RatioLC50 in the assay on Panonychus ulmi [4] is listed as greater than 1600; with Panonychus ulmi [6], greater than 20000; in the assay on Panonychus ulmi [8], greater than 20000. Moreover, the median lethal concentration (LC50) with Panonychus ulmi [5] was determined as 4.32 µg/mL (≈ 12.2 µM); with Panonychus ulmi [7], 0.43 µg/mL (≈ 1.22 µM); with Panonychus ulmi [9], 5.99 µg/mL (≈ 17 µM); with Panonychus ulmi [10], 4.05 µg/mL (≈ 11.5 µM).
Take `CCC(C)(C)C(=O)OC1=C(c2ccc(Cl)cc2Cl)C(=O)OC12CCCCC2` [SPIRODICLOFEN]: the RatioLC50 in the assay on Panonychus ulmi [4] is 56; in the assay on Panonychus ulmi [12] it was 1.2; with Panonychus ulmi [13] it was 1.8; in the assay with Panonychus ulmi [15], 12; in the assay with Panonychus ulmi [17], 1.1; in the assay on Panonychus ulmi [8], greater than 7000. The RatioLC50 in the assay with Panonychus ulmi [21] came out at 2.9; with Panonychus ulmi [23], 27; in the assay with Panonychus ulmi [24], 59; in the assay on Panonychus ulmi [26] it was 33. Also, the median lethal concentration (LC50) in the assay with Panonychus ulmi [11] is 12.1 µg/mL (≈ 29.4 µM); in the assay with Panonychus ulmi [14], 0.59 µg/mL (≈ 1.43 µM); in the assay with Panonychus ulmi [16] it was 0.96 µg/mL (≈ 2.33 µM); in the assay with Panonychus ulmi [5] it was greater than 10000 µg/mL; with Panonychus ulmi [7] it was 1.39 µg/mL (≈ 3.38 µM); in the assay with Panonychus ulmi [18] it was 0.66 µg/mL (≈ 1.6 µM). The 50% lethal concentration (LC50) in the assay on Panonychus ulmi [19] is 27.6 µg/mL (≈ 67.1 µM); with Panonychus ulmi [20], 33 µg/mL (≈ 80.2 µM); in the assay on Panonychus ulmi [22], 1.53 µg/mL (≈ 3.72 µM); in the assay with Panonychus ulmi [9] it was 0.52 µg/mL (≈ 1.26 µM); in the assay with Panonychus ulmi [25], 59.6 µg/mL (≈ 145 µM); in the assay on Panonychus ulmi [10], greater than 10000 µg/mL.
As for `Cc1cc(C)c(C2=C(OC(=O)CC(C)(C)C)C3(CCCC3)OC2=O)c(C)c1` [SPIROMESIFEN], the RatioLC50 in the assay on Panonychus ulmi [4] amounted to 4; in the assay on Panonychus ulmi [8], 30.4. In addition, the LC50 in the assay with Panonychus ulmi [5] is 0.36 µg/mL (≈ 0.972 µM); in the assay with Panonychus ulmi [7], 0.13 µg/mL (≈ 0.351 µM); in the assay on Panonychus ulmi [9] it was 1.07 µg/mL (≈ 2.89 µM); in the assay with Panonychus ulmi [10], 3.73 µg/mL (≈ 10.1 µM).
As to `CCOC(=O)OC1=C(c2cc(C)ccc2C)C(=O)N[C@]12CC[C@@H](OC)CC2` [SPIROTETRAMAT], the LC50 turned out to be 1.09 µg/mL (≈ 2.92 µM) in the assay with Panonychus ulmi [7] and 538 µg/mL (≈ 1440 µM) in the assay with Panonychus ulmi [10]. Besides, in the assay with Panonychus ulmi [8], the RatioLC50 came out at 3.
As to `CCc1nn(C)c(C(=O)NCc2ccc(C(C)(C)C)cc2)c1Cl` [TEBUFENPYRAD], the LC50 with Panonychus ulmi [1] was 11.2 µg/mL (≈ 33.5 µM); in the assay on Panonychus ulmi [2], 0.37 µg/mL (≈ 1.11 µM). In addition, in the assay on Panonychus ulmi [3], the RatioLC50 is recorded as 30.3.

These data come from ChEMBL document CHEMBL3045857, “Monitoring of spirodiclofen susceptibility in field populations of European red mites, Panonychus ulmi (Koch) (Acari: Tetranychidae), and the cross-resistance pattern of a laboratory-selected strain” (2011).
